≈ marks a conversion by molar mass, not a printed value.
Legend:
Streptococcus mitis = experiment: Antibacterial activity against Streptococcus mitis IID685 after 18 hrs by twofold microbroth dilution method; type: functional; conditions: IID685, 18 h
[1] = tested on: Staphylococcus epidermidis; experiment: Antibacterial activity against Staphylococcus epidermidis 56500 after 18 hrs by twofold microbroth dilution method; type: functional; conditions: Staphylococcus epidermidis, 56500, 18 h
Enterococcus faecalis [2] = experiment: Antibacterial activity against Enterococcus faecalis ATCC 19433 after 18 hrs by twofold microbroth dilution method; type: functional; conditions: ATCC19433, 18 h
Escherichia coli = experiment: Antibacterial activity against Escherichia coli NIHJ after 18 hrs by twofold microbroth dilution method; type: functional
Streptococcus pyogenes = experiment: Antibacterial activity against Streptococcus pyogenes G-36 after 18 hrs by twofold microbroth dilution method; type: functional; conditions: G-36, 18 h
Streptococcus pneumoniae [3] = experiment: Antibacterial activity against Streptococcus pneumoniae J-24 after 18 hrs by twofold microbroth dilution method; type: functional; conditions: J-24, 18 h
Pseudomonas aeruginosa = experiment: Antibacterial activity against Pseudomonas aeruginosa PAO1 after 18 hrs by twofold microbroth dilution method; type: functional; conditions: PAO1, 18 h
Staphylococcus aureus [4] = experiment: Antibacterial activity against Staphylococcus aureus FDA 209-P after 18 hrs by twofold microbroth dilution method; type: functional
Klebsiella pneumoniae = experiment: Antibacterial activity against Klebsiella pneumoniae type 2 after 18 hrs by twofold microbroth dilution method; type: functional; conditions: type 2, 18 h
Mus musculus [5] = experiment: Toxicity in Slc:ddY mouse at 50 mg/kg, iv; type: organism-based; design: dose 50 mg/kg, route intravenous; conditions: in vivo
Mus musculus [6] = experiment: Toxicity in Slc:ddY mouse at 150 mg/kg, iv; type: organism-based; design: dose 150 mg/kg, route intravenous; conditions: in vivo
Mus musculus [7] = experiment: Toxicity in Slc:ddY mouse at 100 mg/kg, iv; type: organism-based; design: dose 100 mg/kg, route intravenous; conditions: in vivo
[8] = Aqueous […] of the compound; type: physicochemical; conditions: aqueous (not further specified)
Staphylococcus aureus [9] = experiment: Antibacterial activity against levofloxacin, methicillin-resistant Staphylococcus aureus after 18 hrs by twofold microbroth dilution method; type: functional
Mus musculus [10] = experiment: Toxicity in Slc:ddY mouse assessed as micronucleated reticulocyte in blood at 50 mg/kg, iv after 48 hrs of treatment by fluorescence microscopy; type: organism-based; design: dose 50 mg/kg, route intravenous; conditions: in vivo
Enterococcus faecalis [11] = experiment: Antibacterial activity against vancomycin-resistant Enterococcus faecalis after 18 hrs by twofold microbroth dilution method; type: functional
Staphylococcus aureus [12] = experiment: Antibacterial activity against ciprofloxacin, methicillin-resistant Staphylococcus aureus after 18 hrs by twofold microbroth dilution method; type: functional
Streptococcus pneumoniae [13] = experiment: Antibacterial activity against penicillin-intermediate resistant Streptococcus pneumoniae after 18 hrs by twofold microbroth dilution method; type: functional
Enterococcus faecium = experiment: Antibacterial activity against vancomycin-resistant Enterococcus faecium after 18 hrs by twofold microbroth dilution method; type: functional
DNA gyrase = DNA gyrase (Staphylococcus aureus, UniProt P0A0K8+P20831); experiment: Inhibition of Staphylococcus aureus wild type DNA gyrase; type: protein-complex assay
[14] = Inhibition of Staphylococcus aureus wild type DNA topoisomerase 4
Staphylococcus aureus [15] = experiment: Selectivity ratio of IC50 for Staphylococcus aureus DNA topoisomerase 4 Ser80Phe mutant to IC50 for Staphylococcus aureus wild type DNA topoisomerase 4
[16] = Inhibition of Staphylococcus aureus DNA topoisomerase 4 Ser80Phe mutant
DNA gyrase subunit A = DNA gyrase subunit A (Staphylococcus aureus, UniProt P20831, S84L); experiment: Inhibition of Staphylococcus aureus DNA gyrase Ser84Leu mutant
Staphylococcus aureus [17] = experiment: Selectivity ratio of IC50 for Staphylococcus aureus DNA gyrase Ser84Leu mutant to IC50 for Staphylococcus aureus wild type DNA gyrase
Mus musculus [18] = experiment: Toxicity in Slc:ddY mouse assessed as micronucleated reticulocyte in blood at 100 mg/kg, iv after 48 hrs of treatment by fluorescence microscopy; type: organism-based; design: dose 100 mg/kg, route intravenous; conditions: in vivo

Row | solubility [8] | Structure (SMILES) | MIC (Streptococcus mitis) | MIC [1] | MIC (Enterococcus faecalis [2]) | MIC (Escherichia coli) | MIC (Streptococcus pyogenes) | MIC (Streptococcus pneumoniae [3]) | MIC (Pseudomonas aeruginosa) | MIC (Staphylococcus aureus [4]) | MIC (Klebsiella pneumoniae) | Activity (Mus musculus [7]) | MIC50 (Staphylococcus aureus [9]) | MIC80 (Staphylococcus aureus [9]) | MIC90 (Staphylococcus aureus [9]) | MIC50 (Enterococcus faecalis [11]) | MIC90 (Enterococcus faecalis [11]) | MIC50 (Staphylococcus aureus [12]) | MIC90 (Staphylococcus aureus [12]) | MIC50 (Streptococcus pneumoniae [13]) | MIC90 (Streptococcus pneumoniae [13]) | further results
1 |  | N[C@@H]1[C@H]2CN(c3nc4c(cc3F)c(=O)c(C(=O)O)cn4-c3ccc(F)cc3F)C[C@@H]12 [TROVAFLOXACIN] | 0.1 µg/mL (≈ 0.24 µM) | 0.05 µg/mL (≈ 0.12 µM) | 0.2 µg/mL (≈ 0.48 µM) | ≤ 0.003 µg/mL | 0.2 µg/mL (≈ 0.48 µM) | 0.05 µg/mL (≈ 0.12 µM) | 0.2 µg/mL (≈ 0.48 µM) | 0.013 µg/mL (≈ 0.0312 µM) | 0.025 µg/mL (≈ 0.06 µM) |  |  |  |  |  |  |  |  |  |  | 
2 |  | CN[C@H](CC(C)C)C(=O)N[C@H]1C(=O)N[C@@H](CC(N)=O)C(=O)N[C@H]2C(=O)N[C@H]3C(=O)N[C@H](C(=O)N[C@H](C(=O)O)c4cc(O)cc(O)c4-c4cc3ccc4O)[C@H](O)c3ccc(c(Cl)c3)Oc3cc2cc(c3O[C@@H]2O[C@H](CO)[C@@H](O)[C@H](O)[C@H]2O[C@H]2C[C@](C)(N)[C@H](O)[C@H](C)O2)Oc2ccc(cc2Cl)[C@H]1O [VANCOMYCIN] |  |  |  |  |  |  |  |  |  |  | 1 µg/mL (≈ 0.69 µM) | 1 µg/mL (≈ 0.69 µM) | 1 µg/mL (≈ 0.69 µM) | > 128 µg/mL | > 128 µg/mL | 1 µg/mL (≈ 0.69 µM) | 2 µg/mL (≈ 1.38 µM) | 0.5 µg/mL (≈ 0.345 µM) | 0.5 µg/mL (≈ 0.345 µM) | MIC50 (Enterococcus faecium): > 128 µg/mL; MIC90 (Enterococcus faecium): > 128 µg/mL
3 |  | C[C@H]1NCc2cc(-c3ccc4c(=O)c(C(=O)O)cn(C5CC5)c4c3OC(F)F)ccc21 [GARENOXACIN] | 0.05 µg/mL (≈ 0.117 µM) | 0.05 µg/mL (≈ 0.117 µM) | 0.2 µg/mL (≈ 0.469 µM) | 0.012 µg/mL (≈ 0.0281 µM) | 0.1 µg/mL (≈ 0.235 µM) | 0.025 µg/mL (≈ 0.0586 µM) | 0.78 µg/mL (≈ 1.83 µM) | 0.025 µg/mL (≈ 0.0586 µM) | 0.05 µg/mL (≈ 0.117 µM) |  | 2 µg/mL (≈ 4.69 µM) | 64 µg/mL (≈ 150 µM) | 64 µg/mL (≈ 150 µM) | 4 µg/mL (≈ 9.38 µM) | 8 µg/mL (≈ 18.8 µM) | 1 µg/mL (≈ 2.35 µM) | 32 µg/mL (≈ 75 µM) | 0.12 µg/mL (≈ 0.281 µM) | 0.12 µg/mL (≈ 0.281 µM) | IC50 (DNA gyrase): 8.42 µM; IC50 [14]: 1.14 µg/mL (≈ 2.67 µM); Ratio IC50 (Staphylococcus aureus [15]): 18.2; IC50 [16]: 20.7 µg/mL (≈ 48.5 µM); IC50 (DNA gyrase subunit A): > 1200 µM; Ratio IC50 (Staphylococcus aureus [17]): > 143; MIC50 (Enterococcus faecium): 8 µg/mL (≈ 18.8 µM); MIC90 (Enterococcus faecium): 32 µg/mL (≈ 75 µM)
4 | 161 µg/mL (≈ 388 µM) | CNC1([C@@H]2CCN(c3ccc4c(=O)c(C(=O)O)cn([C@@H]5C[C@@H]5F)c4c3OC)C2)CC1 | 0.003 µg/mL (≈ 0.00722 µM) | 0.012 µg/mL (≈ 0.0289 µM) | 0.05 µg/mL (≈ 0.12 µM) | 0.006 µg/mL (≈ 0.0144 µM) | 0.012 µg/mL (≈ 0.0289 µM) | 0.006 µg/mL (≈ 0.0144 µM) | 0.39 µg/mL (≈ 0.939 µM) | ≤ 0.003 µg/mL | 0.05 µg/mL (≈ 0.12 µM) | Non-toxic |  |  |  |  |  |  |  |  |  | Activity (Mus musculus [18]): Non-toxic
5 |  | NCC[C@H](O)C(=O)N[C@@H]1C[C@H](N)[C@@H](O[C@H]2O[C@H](CN)CC[C@H]2N)[C@H](O)[C@H]1O[C@H]1O[C@H](CO)[C@@H](O)[C@H](N)[C@H]1O [ARBEKACIN] |  |  |  |  |  |  |  |  |  |  |  |  |  | 2 µg/mL (≈ 3.62 µM) | 2 µg/mL (≈ 3.62 µM) | 8 µg/mL (≈ 14.5 µM) | 32 µg/mL (≈ 57.9 µM) | 32 µg/mL (≈ 57.9 µM) | 64 µg/mL (≈ 116 µM) | MIC50 (Enterococcus faecium): 16 µg/mL (≈ 29 µM); MIC90 (Enterococcus faecium): 32 µg/mL (≈ 57.9 µM)
6 |  | O=C(O)c1cn(C2CC2)c2cc(N3CCNCC3)c(F)cc2c1=O [CIPROFLOXACIN] | 0.78 µg/mL (≈ 2.35 µM) | 0.2 µg/mL (≈ 0.604 µM) | 0.78 µg/mL (≈ 2.35 µM) | ≤ 0.003 µg/mL | 1.56 µg/mL (≈ 4.71 µM) | 0.39 µg/mL (≈ 1.18 µM) | 0.05 µg/mL (≈ 0.151 µM) | 0.05 µg/mL (≈ 0.151 µM) | 0.025 µg/mL (≈ 0.0754 µM) |  | > 64 µg/mL | > 64 µg/mL | > 64 µg/mL |  |  |  |  |  |  | IC50 [14]: 1.24 µg/mL (≈ 3.74 µM); IC50 [16]: 22.4 µg/mL (≈ 67.6 µM)
7 | 89 µg/mL (≈ 229 µM) | COc1c(N2CC[C@@H]([C@H](C)N)C2)c(F)cc2c(=O)c(C(=O)O)cn(C3CC3)c12 | 0.025 µg/mL (≈ 0.0642 µM) | 0.012 µg/mL (≈ 0.0308 µM) | 0.05 µg/mL (≈ 0.128 µM) | 0.012 µg/mL (≈ 0.0308 µM) | 0.012 µg/mL (≈ 0.0308 µM) |  |  |  | 0.05 µg/mL (≈ 0.128 µM) | Toxic |  |  |  |  |  |  |  |  |  | Activity (Mus musculus [5]): Toxic

Row | Structure (SMILES) | solubility [8] | MIC (Streptococcus mitis) | MIC [1] | MIC (Enterococcus faecalis [2]) | MIC (Escherichia coli) | MIC (Streptococcus pyogenes) | MIC (Streptococcus pneumoniae [3]) | MIC (Pseudomonas aeruginosa) | MIC (Staphylococcus aureus [4]) | MIC (Klebsiella pneumoniae) | Activity (Mus musculus [7]) | MIC50 (Staphylococcus aureus [9]) | MIC80 (Staphylococcus aureus [9]) | MIC90 (Staphylococcus aureus [9]) | MIC50 (Enterococcus faecalis [11]) | MIC90 (Enterococcus faecalis [11]) | MIC50 (Staphylococcus aureus [12]) | MIC90 (Staphylococcus aureus [12]) | MIC50 (Streptococcus pneumoniae [13]) | MIC90 (Streptococcus pneumoniae [13]) | further results
8 | COc1c(N2CC[C@@H]([C@H](C)N)C2)ccc2c(=O)c(C(=O)O)cn(C3CC3)c12 | > 10000 µg/mL | 0.006 µg/mL (≈ 0.0162 µM) | 0.006 µg/mL (≈ 0.0162 µM) | 0.05 µg/mL (≈ 0.135 µM) | 0.012 µg/mL (≈ 0.0323 µM) | 0.012 µg/mL (≈ 0.0323 µM) | ≤ 0.003 µg/mL | 0.2 µg/mL (≈ 0.538 µM) | ≤ 0.003 µg/mL | 0.1 µg/mL (≈ 0.269 µM) | Toxic | 0.5 µg/mL (≈ 1.35 µM) | 8 µg/mL (≈ 21.5 µM) | 8 µg/mL (≈ 21.5 µM) |  |  |  |  |  |  | Activity (Mus musculus [5]): Non-toxic; Activity (Mus musculus [6]): Toxic; Activity (Mus musculus [10]): Toxic
